We go through four molecules from article PMC5652740, “Inhibition of HIV-1 infection in humanized mice and metabolic stability of protein phosphatase-1-targeting small molecule 1E7-03” (Oncotarget, 2017).

Where “and” joins values, the source holds several entries; their conditions need not be identical. Equal values may be shown once.

One data set relates to CEM T cells. The experiment in a line: Cellular permeability assay by LC/FT-MS. The class given is in vitro ADME. The note with it: 10 μM, 24 hrs; for CEM T cell permeability, % of Total, Cells: accumulation in cell lysate. The protocol: CEM T cells were seeded in 6-well plates (0.5 × 10^6 cells/ml) and treated by 10 μM of the indicated compounds. Two samples were generated for each compound (in triplicates) obtained from cellular lysate and media sample. Cell culture media samples (100 μl) were collected from each well after 24 hrs of incubation and total protein was precipitated by the addition of 400 μl cold acetone. […] To obtain cell lysates, the cells were suspended in 300 μl cold whole cell lysis buffer (50 mM Tris-HCl, pH 7.5, 0.5 M NaCl, 1% NP-40, 0.1% SDS) and sonicated. A 100 μl aliquot of the cell lysate was combined with 400 μl cold acetone to precipitate proteins. All samples were centrifuged at 13,000 × g for 5 min. Supernatants containing compounds and their metabolites were collected and evaporated to dryness on SpeedVac concentrator. The dry pellet was reconstituted in 50 μl acetonitrile for LC/FT-MS analysis.

The target of a further data set is T1, PP1 (Homo sapiens, UniProt P62136).
T1 construct: human PP1α (residues 7–300); His; made in house; host or cells: BL21 (DE3) Escherichia coli, co-expressed with GroEL/GroES chaperones
T1 sequence (P62136 7-300): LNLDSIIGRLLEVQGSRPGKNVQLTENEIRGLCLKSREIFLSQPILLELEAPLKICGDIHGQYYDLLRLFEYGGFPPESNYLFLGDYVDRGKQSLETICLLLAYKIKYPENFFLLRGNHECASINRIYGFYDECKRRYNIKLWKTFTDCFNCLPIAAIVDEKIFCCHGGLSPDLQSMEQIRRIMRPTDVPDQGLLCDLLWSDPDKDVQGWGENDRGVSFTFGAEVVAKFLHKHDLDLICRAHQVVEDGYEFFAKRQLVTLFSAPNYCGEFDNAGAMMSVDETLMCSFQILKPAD
The experiment in a line: SPR competition with pRb-Tat peptide for binding to PP1. The following applies: compounds at 1 μM; for fold reduction of the binding of pRb-Tat to PP1: pRb-Tat 10-100 nM. The protocol: The SPR measurements were conducted on Biacore T200 instrument (GE Healthcare, Piscataway, NJ) at 25°C. Recombinant PP1 was immobilized on a CM5 chip by amine coupling (GE Healthcare). PP1 (200 nM) was captured on flow cell 2 in 10 mM acetate buffer, pH 5.0, supplemented with 2 mM MnCl2. The average amount of PP1 immobilized on the surface was 3160 RU. Flow cell 1 was used as a reference surface to subtract background signal. Also injections of the buffer alone were used to provide double reference subtraction. To measure the direct binding of small molecules to PP1, the two flow cells of the sensor chip were primed with running buffer (0.01 M HEPES pH 7.4, 0.15 M NaCl, 0.005% v/v Surfactant P20, 1% DMSO and 2 mM MnCl2). For binding and kinetics experiments, all compounds were diluted in the running buffer, at 40 μM, 20 μM, 10 μM, 5 μM, 2.5 μM, 1.25 μM and 0 μM and then passed over the two flow cells at a flow rate of 100 μl/min for 60 sec. The number of response units was recorded after the subtraction of the reference flow cell's value (Fc2-1). Two repetitions were performed for each injection. Data were analyzed using the BiaEvaluation software of Biacore with a 1:1 binding model. […] All the small molecular weight compounds were used at 1 μM.

Data set [1] can be described thus: Stability in mouse liver microsomes. The note with it: 10 μM 1E7-03, 37°C, 1 hr; 1E7-03 remaining and DP1, DP3 formed. Format: in vitro ADME. On the procedure: The metabolic stability of 1E7-03 was also investigated using a pool of human and mouse liver microsomes (HMS9PL, MSS9PL, Thermo Scientific) following manufacturer's instructions. In brief, incubations were conducted at 37 ± 1°C in mixtures containing 5 μl of human or mouse liver microsomes (20 mg/ml), 183 μl of potassium phosphate buffer (pH 7.4, 100 mM) and 2 μl of 1E7-03 (10 mM sock solution of 1E7-03 in DMSO was diluted into 1 mM by PBS). The mixture was pre-incubated for 5 min, then initiated the reactions with the addition of 10 μl 20 mM NADPH (Sigma Aldrich). The reactions were terminated after 1 hr incubation by adding 800 μl cold acetone. The mixture was kept at 4°C for 30 min, and the precipitated protein was removed by centrifugation (13, 000 g for 10 min at 4°C). A 250 μl aliquot of supernatant was transferred to a clean test tube and evaporated to dryness using a SpeedVac concentrator. The residue was reconstituted in 50 μl of acetonitrile with 0.1% FA for LC/FT-MS analysis.
Background: Liver microsomes are a subcellular fraction often used to study metabolism.

Data set [2] in a line: 1E7-03 degradation in mouse plasma. The class given is in vitro ADME. The note with it: for % of 1E7-03 degraded: mouse plasma, 10 μM. On the procedure:
A 10 μl aliquots from each sample were loaded to a LC-20AD nano HPLC system (Shimadzu Corporation, Columbia, MD, USA) coupled to LTQ XL Orbitrap mass spectrometer (Thermo Fisher Scientific) with the installed Xcalibur software (version 2.0.7, Thermo Fisher Scientific). Liquid chromatography was carried out on an in-house made nano-HPLC column (Polymicro Technologies Inc., Phoenix, AZ, USA) packed with reverse phase PolySulfoethyl A, 5μM, 200 Å (PolyLC Inc., Columbia, MD, USA). Mobile phase A was 0.1% formic acid in water and mobile phase B - 0.1% formic acid in acetonitrile. The elution was performed at a flow rate of 600 nl/min over 40 min using a multisegment linear gradient of mobile phase B as follows: 0–6.02 min, 1% B; 6.02–6.11 min, 1–2% B; 6.11–20 min, 2−80% B; 20–25 min, 80% B; 25–30 min, 80–85% B; 30–31 min, […]; 31–40 min, 2% B (v/v). The Orbitrap was operated under data-dependent acquisition mode. The spray voltage, capillary temperature and capillary voltage were set to 2.0 kV, 200 °C, and 39.5 V, respectively. Full-scan mass spectra were acquired in Orbitrap over 150−1500 m/z with a resolution of 30 000, followed by MS^n scans by CID activation mode. The precursor ions were fragmented with collision energy of 18 with activation Q of 0.25 and an activation time of 30 ms. Dynamic exclusion was enabled with a repeat count of 2, a repeat duration of 15 s, exclusion duration of 20 s, an exclusion list size of 50. The mass spectrometer was also operated in NL scan of m/z 18.01, 45.05, 71.03 and 72.02 and MRM mode. The MRM transitions were controlled by a segmented program in order to short the scan cycle and increase sensitivity.
1E7-03 dissolved in DMSO (10 mM stock solution) was mixed with mouse plasma (Sigma-Aldrich), guinea pig plasma (Sigma-Aldrich), ferret plasma (BioreclamationIVT), monkey plasma (courtesy of Binhua Ling, PhD, Tulane University) and human plasma (collected from heathy volunteer by the Center for Sickle Cell Disease at Howard University) to the final concentration of 10 μM and incubated at 37°C. Aliquots were collected at different time points for up to 24 hrs. The resulting sample (60 μl) was mixed with 240 μl of cold acetone, vortexed for 2 min, kept at –20°C for 30 min, and then the precipitated protein was removed by centrifugation at 13,000 × g for 5 min. The supernatant was transferred to a clean test tube and evaporated to dryness using a SpeedVac concentrator. The residue reconstituted in 60 μl of acetonitrile for LC/FT-MS analysis. All experiments were run parallel in triplicates.

Turning to `COc1ccc(/C=C2\CCCc3c2nc2ccccc2c3C(=O)OC(C)C(=O)OC(C)(C)C)cc1OC` (stereo not shown) [DP1-07], the “CEM T cell permeability, % of Total, Cells” value in the data set on CEM T cells (37°C) is 2.7% and 2.73%. Also, in the data set with CEM T cells (37°C, amount in media), the “CEM T cell permeability, % of Total, Media” value turned out to be 97.27%.

Take `COc1ccc(/C=C2\CCc3c2nc2ccccc2c3C(=O)OC(C)C(=O)O)cc1OC` (stereo not shown) [DP1]: the “competition with pRb-Tat for binding to PP1” value at PP1 (in words) was “best competitor”. In addition, on PP1, the “fold reduction of the binding of pRb-Tat to PP1” value (from here on “fold reduction”) worked out at 10 fold. For the same molecule, the “% of Total (Liver microsomes, Mouse)” value in data set [1] came to 8.36%. Besides, the “times less efficient cellular accumulation than 1E7-03” value with CEM T cells (CEM T cells) is “more than 10 times”. Further, the “time at which DP1 levels reached their maximum” value in data set [2] (10 μM 1E7-03 in mouse plasma, 37°C) was 2 h.

For `CCNC(=O)NC(=O)C(C)OC(=O)c1c2c(nc3ccccc13)/C(=C/c1ccc(OC)c(OC)c1)CC2` (stereo not shown) [1E7-03], on PP1, the “fold reduction” value was 2-2.5 fold. In data set [1], the “% of Total (Liver microsomes, Mouse)” value was 91% and 90.61%. In the data set with CEM T cells (37°C), the “CEM T cell permeability, % of Total, Cells” value is on record as 3%. For the same molecule, the “stability in mice and mouse plasma” value in data set [2] (in words) is on record as “not stable”. For the same molecule, the “% of 1E7-03 degraded” value in data set [2] (37°C, 2 hrs) is reported as 40%; in data set [2] (37°C, 4 hrs), “over 85%”.

For `COc1ccc(/C=C2\CCc3c2nc2ccccc2c3C(=O)O)cc1OC` [DP3], at PP1, the “fold reduction” value is listed as 2-2.5 fold. In data set [1], the “% of Total (Liver microsomes, Mouse)” value is 1.03%. For the same molecule, the “level of degradation product in mouse plasma” value in data set [2] (10 μM 1E7-03 in mouse plasma, 37°C, up to 24 hrs) is recorded as “low levels”.
